Source: the supplement of paper PMC13380429

Tests used:
Conditions in all cases: 72 h
Caco-2 [1] = test: cell viability relative to DMSO; higher = less toxic
Calu-3 [2] = test: as above
HepG2 [3] = test: as above
U2OS [4] = test: as above
Vero E6 [5] = test: as above
Caco-2 [6] = test: relative viability EC50 (midpoint between 100% and the lowest measured viability); higher = less toxic
Calu-3 [7] = test: as above
HepG2 [8] = test: as above
U2OS [9] = test: as above
Vero E6 [10] = test: as above
Caco-2 [11] = test: drug sensitivity score (DSS) for viability; higher = more toxic; extreme values may be limits of the assay
Calu-3 [12] = test: as above
HepG2 [13] = test: as above
U2OS [14] = test: as above
Vero E6 [15] = test: as above

SMILES	cell viability (Caco-2 [1]; 1 nM) [%]	cell viability (Caco-2 [1]; 10 nM) [%]	cell viability (Caco-2 [1]; 100 nM) [%]	cell viability (Caco-2 [1]; 1000 nM) [%]	cell viability (Caco-2 [1]; 10000 nM) [%]	cell viability (Calu-3 [2]; 1 nM) [%]	cell viability (Calu-3 [2]; 10 nM) [%]	cell viability (Calu-3 [2]; 100 nM) [%]	cell viability (Calu-3 [2]; 1000 nM) [%]	cell viability (Calu-3 [2]; 10000 nM) [%]	cell viability (HepG2 [3]; 1 nM) [%]	cell viability (HepG2 [3]; 10 nM) [%]	cell viability (HepG2 [3]; 100 nM) [%]	cell viability (HepG2 [3]; 1000 nM) [%]	cell viability (HepG2 [3]; 10000 nM) [%]	cell viability (U2OS [4]; 1 nM) [%]	cell viability (U2OS [4]; 10 nM) [%]	cell viability (U2OS [4]; 100 nM) [%]	cell viability (U2OS [4]; 1000 nM) [%]	cell viability (U2OS [4]; 10000 nM) [%]	cell viability (Vero E6 [5]; 1 nM) [%]	cell viability (Vero E6 [5]; 10 nM) [%]	cell viability (Vero E6 [5]; 100 nM) [%]	cell viability (Vero E6 [5]; 1000 nM) [%]	cell viability (Vero E6 [5]; 10000 nM) [%]	relative viability EC50 (Caco-2 [6]) [µM]	relative viability EC50 (Calu-3 [7]) [µM]	relative viability EC50 (HepG2 [8]) [µM]	relative viability EC50 (U2OS [9]) [µM]	relative viability EC50 (Vero E6 [10]) [µM]	drug sensitivity score (Caco-2 [11])	drug sensitivity score (Calu-3 [12])	drug sensitivity score (HepG2 [13])	drug sensitivity score (U2OS [14])	drug sensitivity score (Vero E6 [15])
O=C(Nc1cc(C(F)(F)F)cc(C(F)(F)F)c1)Nc1c(Br)cc(Br)cc1-c1nnn[nH]1 [NS-5806]	93.7	97.8	97.1	98.2	91.7	94.2	95.4	95.3	98.2	87.9	107	95.3	106	96.6	108	98.6	103	94.6	105	98.9	98.8	99.2	105	102	102	> 10	> 10	> 10	> 10	> 10	0	0	0	0	0
COC(=O)N[C@H](C(=O)N1CC2(CC2)C[C@H]1c1nc(-c2ccc3c(c2)C(F)(F)c2cc(-c4ccc5[nH]c([C@@H]6[C@H]7CC[C@H](C7)N6C(=O)[C@@H](NC(=O)OC)C(C)C)nc5c4)ccc2-3)c[nH]1)C(C)C [ledipasvir]	93.8	93.5	98.1	94.5	87.5	95.9	106	108	110	97.7	97	109	96.6	96.7	101	100	99	101	94.2	86.6	94.3	99.7	91.9	99.7	108	> 10	> 10	> 10	> 10	> 10	0	0	0	0.5	0
CCCN(CCC)CCc1cccc2c1CC(=O)N2 [ropinirole]	97.8	108	100	104	105	92.9	106	99.7	89.8	103	99.1	100	87.7	103	104	–	–	–	–	–	100	101	101	99.3	96.3	> 10	> 10	> 10	–	> 10	0	0	0	–	0
Nc1ccc(O)c(C(=O)O)c1 [mesalazine]	112	98.6	109	97.7	100	109	100	107	96.5	102	112	100	103	104	97.3	103	101	103	96.8	104	105	104	103	102	92.2	> 10	> 10	> 10	> 10	> 10	0	0	0	0	0
O=C(O)CCc1nc(-c2ccccc2)c(-c2ccccc2)o1 [oxaprozin]	94.7	97.1	100	108	101	98.3	92.1	102	96.8	102	104	99.1	107	109	92.1	102	95.4	101	94.2	96.8	99	97.5	94.8	104	97.2	> 10	> 10	> 10	> 10	> 10	0	0	0	0	0
COC(=O)c1ccccc1NC(=O)c1ccc(F)cc1 [EXO-1]	99.5	93	100	103	100	97.9	98.1	99.6	95.6	96.5	95.6	99.9	91.8	94.7	111	98.7	91.8	98.3	95.7	98.8	95.2	94.6	91	93.6	99.5	> 10	> 10	> 10	> 10	> 10	0	0	0	0	0
